Measured values taken from US11155523B2, “Biphenyl compound as CCR2/CCR5 receptor antagonist” (Medshine Discovery Inc., priority 2016, dated 2021).

What was measured:
CCR2 = molecular target: T1, CCR2 (Homo sapiens, UniProt P41597); assay: CCR2 in vitro test: intracellular calcium signal detected by FLIPR; type: cell-based; settings: HEK293 cells expressing CCR2, agonist MCP-1 at EC80, calcium signal
T1 construct: expressed in transfected cells; host or cells: HEK293, clone C7, passage P6
Procedure: (§1) Experimental Example 1: CCR2/CCR5 In Vitro Test
(§2) The intracellular calcium signal was detected by FLIPR, and the IC50 value of the compound was used as an index to evaluate the inhibitory effect of the compound on CCR2 and CCR5 receptors.
(§3) 1. Cell line: The cells were inoculated and incubated in a 5% CO2 incubator at 37° C. overnight.
(§4) CCR2/CCR5 density: 1 M (20 k/well)
(§5) 2. Reagents: Fluo-4 Direct, (Invitrogen, Cat #F10471)
(§6) The compound was dissolved in DMSO to prepare a 10 mM solution, and the compound solution was placed in a nitrogen box.
(§7) Agonist reference compounds:
(§8) Preparation of probenecid in FLIPR assay buffer: 1 mL of FLIPR assay buffer was added to […] of probenecid to prepare a 250 mM solution, which is prepared fresh daily.
(§9) 2× (8 μM) Fluo-4 Direct™ Loading Buffer (per 10 mL) • Thaw a bottle of Fluo-4 Direct™ crystal (F10471). • Add 10 mL of FLIPR assay buffer to the vial. • Add 0.2 mL of probenecid to each 10 mL of Fluo-Direct. The final concentration of the assay was 2.5 mM. • Rotate it and place for >5 minutes (in absence of light). • Prepare fresh daily.
(§10) MCP-1 was diluted in FLIPR assay buffer 1:2 into 10 points, starting at 0.5 uM (final 100 nM). RANTES was diluted in FLIPR assay buffer 1:3 into 10 points, starting at 0.5 uM (final 100 nM). 20 uL of serially diluted compound buffer was added to each well of the DRC plate according to the compound plate map.
(§11) Standard compound was diluted in DMSO 1:3 into 11 points, starting at 1 mM. Test compound was diluted in DMSO 1:3 into 11 points, starting at 2 mM. 250 nL of compound solution was transferred into a cell plate using Echo (Greiner #781946).
(§12) (c) Take the cell plate out of the incubator, and gently dispense 20 uL of 2× Fluo-4 Direct wash-free loading buffer into a 384-well cell culture plate using a pipette. The final cell plate is 40 μL in volume.
(§13) (d) Incubate for 50 minutes at 37° C. under 5% CO2, and for 10 minutes at room temperature.
(§14) (e) Take the cell plate out of the incubator, and place it in FLIPR. Place the composite plate and the tip box in FLIPR.
(§15) (f) For DRC plate: • 1) Run the program on FLIPRTETRA. • 2) Read the fluorescent signal. • 3) Transfer 10 μL of compound from the DRC plate to the cell plate. • 4) Read the fluorescent signal. • 5) Calculate the “maximum−minimum” from Read 90 to the maximum allowed. Use FLIPR to calculate the EC80 value of each cell line. • 6) Prepare 5×EC80 concentration of the agonist reference compound.
(§16) (g) For the composite plate (1-add): • 1) Run the program on FLIPRTETRA. • 2) Transfer 10 μl, of 5×EC80 concentration of the agonist reference compound from the composite plate to the cell plate. • 3) Read the fluorescent signal. • 4) Calculate the “maximum−minimum” from Read 90 to the maximum allowed.
(§17) (h) Analyze the data using Prism, and calculate the IC50 value of the compound.

CCR5 = molecular target: T2, CCR5 (Homo sapiens, UniProt P51681); assay: CCR5 in vitro test: intracellular calcium signal detected by FLIPR; type: cell-based; settings: HEK293 cells expressing CCR5, agonist RANTES at EC80, calcium signal
T2 construct: expressed in transfected cells; host or cells: HEK293, clone C13, passage P4
T2 sequence (P51681 whole entry, species assumed): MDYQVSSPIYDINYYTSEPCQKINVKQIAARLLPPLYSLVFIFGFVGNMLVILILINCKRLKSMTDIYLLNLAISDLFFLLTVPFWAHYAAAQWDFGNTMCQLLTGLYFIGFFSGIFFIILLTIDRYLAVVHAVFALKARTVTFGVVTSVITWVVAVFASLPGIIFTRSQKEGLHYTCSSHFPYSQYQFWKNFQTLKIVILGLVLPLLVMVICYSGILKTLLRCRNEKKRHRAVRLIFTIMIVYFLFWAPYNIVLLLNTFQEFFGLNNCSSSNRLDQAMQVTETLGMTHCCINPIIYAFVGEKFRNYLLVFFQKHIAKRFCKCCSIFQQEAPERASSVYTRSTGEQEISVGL
Procedure: as §1, §2, §3, §4, §5, §6, §7, §8, §9, §10, §11, §12, §13, §14, §15, §16, §17

[1] = Comparative pharmacokinetics study in rats; type: in vivo, SD male rats; settings: rat; for clearance / half-life / bioavailability: male, Sprague-Dawley (SD), plasma; for clearance / half-life / Area Under a Curve (0-inf): intravenous injection 2 mg/kg; for bioavailability: oral 10 mg/kg vs intravenous 2 mg/kg; for Area Under a Curve (0-inf/0-last) / Peak time: oral 10 mg/kg; for Oral plasma system exposure (AUC0-inf) as multiple of the reference compound / Plasma clearance as percent of that of the reference compound: relative to Cenicriviroc
Procedure: Experimental Example 2: Comparative Pharmacokinetics Study in Rats
SD male rats were used as the test animals in this study. The drug concentrations in plasma of the rats by intravenous or oral administration of test compounds WX017, WX047, WX079, WX088 and reference compound at different time points were quantitatively determined by LC/MS/MS, which were used to evaluate the pharmacokinetic profile of the two test drugs in rats.
A clear solution of the test compound was injected into SD rats via the tail vein (overnight fasting, 7-10 weeks old), and the test compound was orally administered to the SD rats (overnight fasting, 7-10 weeks old). Approximately 200 μL of blood was collected from the jugular vein or tail vein of the animals 0.0833, 0.25, 0.5, 1, 2, 4, 6, 8 and 24 hours after administration, and was placed in an anticoagulant tube containing EDTA-K2. The plasma was collected by centrifugation at 3000 g for 15 minutes at 4° C. The plasma concentration was determined by LC-MS/MS. The pharmacokinetic parameters were calculated by the non-compartment model linear logarithmic trapezoidal method using WinNonlin™ Version 6.3 (Pharsight, Mountain View, Calif.) pharmacokinetic software.

T1 sequence (P41597 whole entry, species assumed): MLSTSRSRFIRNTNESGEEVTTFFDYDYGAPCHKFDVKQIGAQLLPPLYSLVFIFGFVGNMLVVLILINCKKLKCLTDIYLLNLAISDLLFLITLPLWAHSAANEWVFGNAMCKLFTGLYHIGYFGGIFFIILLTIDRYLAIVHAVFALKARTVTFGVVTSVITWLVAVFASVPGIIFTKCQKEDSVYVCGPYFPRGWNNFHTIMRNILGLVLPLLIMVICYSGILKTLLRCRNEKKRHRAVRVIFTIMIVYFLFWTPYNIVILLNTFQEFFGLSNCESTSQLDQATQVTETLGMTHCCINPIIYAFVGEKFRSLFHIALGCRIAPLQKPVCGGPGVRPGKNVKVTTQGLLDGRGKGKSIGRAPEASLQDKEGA

Row | IC50 (CCR2) | IC50 (CCR5) | clearance [1] | half-life [1] | bioavailability [1] | Area Under a Curve (0-inf) [1] | Area Under a Curve (0-inf/0-last) [1] | Peak time [1] | Oral plasma system exposure (AUC0-inf) as multiple of the reference compound [1] | Plasma clearance as percent of that of the reference compound [1] | SMILES
1 | 3.5 nM | 4.3 nM | 0.328 mL/min/kg | 6.63 h | 15.7% | 150.423 µM·h | 122.101 µM·h | 3.0 h | 3.8 times | 21% | CCCCOCCOc1ccc(-c2cc(F)c(OC)c(/C=C/C(=O)Nc3ccc([S@+]([O-])Cc4c(C)ncn4CC)cc3)c2)cc1 [WX088]
2 | 13 nM | 7.9 nM | 0.4 mL/min/kg | 3.69 h | 48.9% | 135.732 µM·h | 331.778 µM·h | 1.5 h | 10.4 times | 25% | CCCCOCCOc1ccc(-c2ccc(OC)c(/C=C/C(=O)Nc3ccc([S@@+]([O-])Cc4cncn4CCC)cc3)c2)cc1 [WX017]
